Measured values taken from PubChem BioAssay AID248 (DTP/NCI, 2004).
“And” between values parts separate entries of the source, which are not always exact repeats. Equal entries are not always repeated. Toxic doses and inconclusive results are not listed. No stated cut-off is given here; in the data, active means T/C of 150% or more; inactive means T/C below 125%.

System: L1210 leukemia ip in BDF1 mice, survival T/C
Test: NCI In Vivo Anticancer Drug Screen. Data for tumor model L1210 Leukemia (intraperitoneal) in B6D2F1 (BDF1) mice
Conditions: endpoint: mean survival time, higher = longer survival
Method in brief: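 Survival endpoint. Drug-treated group vs vehicle group, expressed as T divided by C. Tumor passaged by transplantation.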

[1] = dose: 100.0 mg/kg/injection, schedule: Q01DX001 (ip), vehicle: saline
[2] = dose: 200.0 mg/kg/injection, schedule: Q01DX001 (ip), vehicle: saline
[3] = dose: 400.0 mg/kg/injection, schedule: Q01DX001 (ip), vehicle: saline
[4] = dose: 100.0 mg/kg/injection, schedule: Q04DX003 (ip), vehicle: Klucel (hydroxypropylcellulose) (HPC)
[5] = dose: 50.0 mg/kg/injection, schedule: Q01DX009 (ip), vehicle: saline with Tween-80
[6] = dose: 100.0 mg/kg/injection, schedule: Q01DX009 (ip), vehicle: saline with Tween-80
[7] = dose: 200.0 mg/kg/injection, schedule: Q01DX009 (ip), vehicle: saline with Tween-80
[8] = dose: 100.0 mg/kg/injection, schedule: Q01DX009 (ip), vehicle: Klucel (hydroxypropylcellulose) (HPC)
[9] = dose: 200.0 mg/kg/injection, schedule: Q01DX009 (ip), vehicle: Klucel (hydroxypropylcellulose) (HPC)
[10] = dose: 400.0 mg/kg/injection, schedule: Q01DX009 (ip), vehicle: saline with Tween-80
[11] = dose: 100.0 mg/kg/injection, schedule: Q04DX002 (ip), vehicle: saline with Tween-80
[12] = dose: 200.0 mg/kg/injection, schedule: Q04DX002 (ip), vehicle: saline with Tween-80
[13] = dose: 100.0 mg/kg/injection, schedule: Q01DX001 (ip), vehicle: Klucel (hydroxypropylcellulose) (HPC)
[14] = dose: 200.0 mg/kg/injection, schedule: Q01DX001 (ip), vehicle: Klucel (hydroxypropylcellulose) (HPC)
[15] = dose: 200.0 mg/kg/injection, schedule: Q04DX003 (ip), vehicle: Klucel (hydroxypropylcellulose) (HPC)
[16] = dose: 400.0 mg/kg/injection, schedule: Q04DX003 (ip), vehicle: Klucel (hydroxypropylcellulose) (HPC)

Measured: T/C

c1cc[c]([Pb]([S]c2nc3ccccc3[nH]2)([c]2ccccc2)[c]2ccccc2)cc1
inactive: dose: 3.12 mg/kg/injection, schedule: Q04DX002 (ip), vehicle: gum acacia 104 % of control | dose: 6.25 mg/kg/injection, schedule: Q04DX002 (ip), vehicle: gum acacia 101 % of control | dose: 12.5 mg/kg/injection, schedule: Q04DX002 (ip), vehicle: gum acacia 97 % of control and 101 % of control

COc1ccc(-n2c(=O)c(N=Nc3ccccc3C)c(O)n(-c3ccccc3C)c2=S)cc1
inactive: dose: 37.5 mg/kg/injection, schedule: Q01DX001 (ip), vehicle: Klucel (hydroxypropylcellulose) (HPC) 100 % of control | dose: 75.0 mg/kg/injection, schedule: Q01DX001 (ip), vehicle: Klucel (hydroxypropylcellulose) (HPC) 97 % of control | dose: 150.0 mg/kg/injection, schedule: Q01DX001 (ip), vehicle: Klucel (hydroxypropylcellulose) (HPC) 100 % of control

CCOC(=O)C(NC(C)=O)C(N)=S (stereo unspecified)
inactive: [1] 99 % of control | dose: 100.0 mg/kg/injection, schedule: Q01DX009 (ip), vehicle: saline 108 % of control | dose: 100.0 mg/kg/injection, schedule: Q04DX003 (ip), vehicle: saline 102 % of control | [2] 93 % of control | dose: 200.0 mg/kg/injection, schedule: Q01DX009 (ip), vehicle: saline 97 % of control | dose: 200.0 mg/kg/injection, schedule: Q04DX003 (ip), vehicle: saline 96 % of control | [3] 94 % of control | dose: 400.0 mg/kg/injection, schedule: Q01DX009 (ip), vehicle: saline 105 % of control | dose: 400.0 mg/kg/injection, schedule: Q04DX003 (ip), vehicle: saline 106 % of control

COc1cc([N+](=O)[O-])cc(C=O)c1O
inactive: dose: 25.0 mg/kg/injection, schedule: Q04DX003 (ip), vehicle: Klucel (hydroxypropylcellulose) (HPC) 92 % of control | dose: 50.0 mg/kg/injection, schedule: Q04DX003 (ip), vehicle: Klucel (hydroxypropylcellulose) (HPC) 92 % of control | [4] 96 % of control and 101 % of control

c1ccc(CNc2ncn[nH]2)cc1
inactive: [5] 95 % of control | [6] 103 % of control | [7] 95 % of control

CSc1ccc(P(=NS(=O)(=O)c2ccc(C)cc2)(c2ccc(SC)cc2)c2ccc(SC)cc2)cc1
inactive: [8] 104 % of control | [9] 98 % of control

O=C(CBr)Nc1ccccc1S(=O)(=O)F
inactive: dose: 4.68 mg/kg/injection, schedule: Q01DX009 (ip), vehicle: carboxymethylcellulose (CMC) 91 % of control | dose: 9.37 mg/kg/injection, schedule: Q01DX009 (ip), vehicle: carboxymethylcellulose (CMC) 91 % of control | dose: 18.75 mg/kg/injection, schedule: Q01DX009 (ip), vehicle: carboxymethylcellulose (CMC) 94 % of control | dose: 18.75 mg/kg/injection, schedule: Q04DX003 (ip), vehicle: carboxymethylcellulose (CMC) 102 % of control | dose: 37.5 mg/kg/injection, schedule: Q04DX003 (ip), vehicle: carboxymethylcellulose (CMC) 102 % of control | dose: 75.0 mg/kg/injection, schedule: Q01DX001 (ip), vehicle: carboxymethylcellulose (CMC) 96 % of control

Cn1c(NN)cc(=O)n(C)c1=O
inactive: dose: 75.0 mg/kg/injection, schedule: Q04DX003 (ip), vehicle: saline 107 % of control | dose: 150.0 mg/kg/injection, schedule: Q04DX003 (ip), vehicle: saline 94 % of control | dose: 300.0 mg/kg/injection, schedule: Q04DX003 (ip), vehicle: saline 104 % of control

O=C(Nc1cccc(F)c1)N(Cc1ccccc1)c1ccccc1
inactive: [6] 91 % of control | [7] 91 % of control | [10] 98 % of control

CC(=O)Nc1ccc(OC(C)=O)cc1
inactive: dose: 100.0 mg/kg/injection, schedule: Q04DX003 (ip), vehicle: saline with Tween-80 106 % of control | dose: 200.0 mg/kg/injection, schedule: Q04DX003 (ip), vehicle: saline with Tween-80 106 % of control | dose: 400.0 mg/kg/injection, schedule: Q04DX003 (ip), vehicle: saline with Tween-80 116 % of control

CCCCSC1CC(=O)N(CCCC)C1=O (stereo unspecified)
inactive: dose: 75.0 mg/kg/injection, schedule: Q04DX003 (ip), vehicle: saline with Tween-80 100 % of control | dose: 100.0 mg/kg/injection, schedule: Q01DX001 (ip), vehicle: saline with Tween-80 103 % of control | dose: 150.0 mg/kg/injection, schedule: Q04DX003 (ip), vehicle: saline with Tween-80 90 % of control | dose: 200.0 mg/kg/injection, schedule: Q01DX001 (ip), vehicle: saline with Tween-80 98 % of control | dose: 300.0 mg/kg/injection, schedule: Q04DX003 (ip), vehicle: saline with Tween-80 92 % of control | dose: 400.0 mg/kg/injection, schedule: Q01DX001 (ip), vehicle: saline with Tween-80 101 % of control

CCCCCCCCCCCCC[n+]1ccc(C#N)cc1
inactive: dose: 7.5 mg/kg/injection, schedule: Q04DX003 (ip), vehicle: saline 101 % of control | dose: 15.0 mg/kg/injection, schedule: Q04DX003 (ip), vehicle: saline 98 % of control | dose: 30.0 mg/kg/injection, schedule: Q04DX003 (ip), vehicle: saline 101 % of control

C[As+]1(N)c2ccccc2Nc2ccccc21
inactive: [1] 86 % of control | [2] 93 % of control | [3] 91 % of control

CN=C1C2CCC(C2)CC1(O)c1ccccc1 (stereo unspecified)
inactive: dose: 50.0 mg/kg/injection, schedule: Q01DX001 (ip), vehicle: saline 102 % of control | [1] 102 % of control

O=C(C1CC1c1ccccc1)N1CCC(O)(c2ccccc2)CC1 (stereo unspecified)
inactive: [11] 103 % of control | [12] 100 % of control | dose: 400.0 mg/kg/injection, schedule: Q04DX002 (ip), vehicle: saline with Tween-80 97 % of control

Oc1cccc2ccc3cccc(O)c3c12
inactive: dose: 100.0 mg/kg/injection, schedule: Q04DX003 (ip), vehicle: alcohol 100 % of control | dose: 200.0 mg/kg/injection, schedule: Q04DX003 (ip), vehicle: alcohol 93 % of control

O=CC(CO)C(C=O)n1ncc2ccccc21 (stereo unspecified)
inactive: dose: 50.0 mg/kg/injection, schedule: Q01DX005 (ip), vehicle: water 112 % of control

CCOC(=O)N/N=C/C(Br)=C\c1ccccc1
inactive: [5] 93 % of control | [11] 101 % of control | [7] 87 % of control | [12] 96 % of control

CS(=O)(=O)OCC(=O)O
inactive: [13] 93 % of control | [14] 97 % of control

S=C(Cc1ccccc1)N1CCCCC1
inactive: [8] 108 % of control | [4] 100 % of control | [9] 98 % of control | [15] 101 % of control | dose: 400.0 mg/kg/injection, schedule: Q01DX009 (ip), vehicle: Klucel (hydroxypropylcellulose) (HPC) 95 % of control

CCCCP(=S)(CCCC)C1CCCC1
inactive: [4] 104 % of control | [15] 107 % of control | [16] 101 % of control

C/C=C/C(OC(C)=O)OC(C)=O
inactive: [5] 101 % of control | [6] 101 % of control | [7] 101 % of control

Clc1ccc(C=Nc2cccc3ccccc23)cc1Cl
inactive: [6] 95 % of control | [7] 95 % of control | [10] 94 % of control

CC(=O)c1cc2c(Br)cccc2oc1=O
inactive: [1] 91 % of control | [2] 98 % of control | [3] 95 % of control

Cc1cc(Cl)n[nH]c1=O
inactive: [1] 105 % of control | [2] 104 % of control | [3] 102 % of control

O=C1OCCN1C(=O)c1ccc(C(=O)N2CCOC2=O)cc1
inactive: [13] 94 % of control | dose: 100.0 mg/kg/injection, schedule: Q01DX007 (ip), vehicle: Klucel (hydroxypropylcellulose) (HPC) 89 % of control | [4] 97 % of control | [14] 87 % of control | dose: 200.0 mg/kg/injection, schedule: Q01DX007 (ip), vehicle: Klucel (hydroxypropylcellulose) (HPC) 92 % of control | [15] 101 % of control | dose: 400.0 mg/kg/injection, schedule: Q01DX001 (ip), vehicle: Klucel (hydroxypropylcellulose) (HPC) 92 % of control | dose: 400.0 mg/kg/injection, schedule: Q01DX007 (ip), vehicle: Klucel (hydroxypropylcellulose) (HPC) 90 % of control | [16] 95 % of control

C=CCOc1ccccc1OCC=C
inactive: dose: 100.0 mg/kg/injection, schedule: Q01DX001 (ip), vehicle: carboxymethylcellulose (CMC) 107 % of control | dose: 200.0 mg/kg/injection, schedule: Q01DX001 (ip), vehicle: carboxymethylcellulose (CMC) 102 % of control | dose: 400.0 mg/kg/injection, schedule: Q01DX001 (ip), vehicle: carboxymethylcellulose (CMC) 100 % of control
